Laboratory results: PMC12396409, “Screening and hit evaluation of a microbial metabolite library against the pathogenic Plasmodium falciparum and Toxoplasma gondii parasites” (International Journal for Parasitology: Drugs and Drug …, 2025)
Where two headings read alike, the source gives them in different places. Where a SMILES comes first, the peptide text is derived from it. [ ]: non-standard residue; d: D form. d(aIle) = CC[C@H](C)[C@@H](N)C(=O)O; Hica(2S) = CC(C)C[C@H](O)C(=O)O; NMeL = CN[C@@H](CC(C)C)C(=O)O; Hiv = CC(C)[C@H](O)C(=O)O

How the values were obtained:
[1] = tested on: T. gondii RH strain (RH-Tub-eYFP) tachyzoites; assay: microbe, parasite or virus in culture; type: cell-based, Toxoplasma gondii; conditions: 72 h; for percent parasite growth at 2 µg/mL: Toxoplasma gondii
[2] = tested on: P. falciparum 3D7 parasites; assay: P. falciparum growth inhibition assay, 2-cycle (120 h treatment), delayed-death screen and dose-response; type: cell-based, Plasmodium falciparum; conditions: for activity at 2 µg/mL: Plasmodium falciparum
[3] = tested on: P. falciparum 3D7 parasites; assay: P. falciparum growth inhibition assay, 1-cycle (72 h treatment), SYBR DNA staining (library screen at 2 μg/mL and dose-response); type: cell-based, Plasmodium falciparum; conditions: for activity at 2 µg/mL: Plasmodium falciparum
[4] = T. gondii, screen at 2 μg/mL, replicate 1
[5] = T. gondii, screen at 2 μg/mL, replicate 2
[6] = P. falciparum, 120 h, screen at 2 μg/mL, replicate 1
[7] = P. falciparum, 120 h, screen at 2 μg/mL, replicate 2
[8] = P. falciparum, 72 h, screen at 2 μg/mL, replicate 1
[9] = P. falciparum, 72 h, screen at 2 μg/mL, replicate 2
[10] = T. gondii, screen at 2 μg/mL, replicate 1, read-out: Tg_72h_%Growth_Rep1
[11] = T. gondii, screen at 2 μg/mL, replicate 2, read-out: Tg_72h_%Growth_Rep2
[12] = T. gondii, parasite screen 2 μg/mL, % growth, replicate 1
[13] = T. gondii, parasite screen 2 μg/mL, % growth, replicate 2
[14] = P. falciparum, 120 h, parasite screen 2 μg/mL, % growth, replicate 1
[15] = P. falciparum, 120 h, parasite screen 2 μg/mL, % growth, replicate 2
[16] = P. falciparum, 72 h, parasite screen 2 μg/mL, % growth, replicate 1
[17] = P. falciparum, 72 h, parasite screen 2 μg/mL, % growth, replicate 2

CCCCCCCCCCCCCC(=O)N[C@H]1CCOC1=O [Tetradecanoyl-L-homoserine lactone]
Tg_72h_%Growth_Rep1 [1, 4]: 91.68%
Tg_72h_%Growth_Rep2 [1, 5]: 91.92%
Pf_120h_%Growth_Rep1 [2, 6]: 140.07%
Pf_120h_%Growth_Rep2 [2, 7]: 68.40%
Pf_72h_%Growth_Rep1 [3, 8]: 70.00%
Pf_72h_%Growth_Rep2 [3, 9]: 83.15%

COC(=O)/C(=C1/OC(=O)C(c2ccccc2)=C1O)c1ccccc1 [Vulpinic acid]
percent parasite growth at 2 µg/mL [1, 10]: 109%
percent parasite growth at 2 µg/mL [1, 11]: 97.7%
activity at 2 µg/mL ([2]; 3D7, P. falciparum, 120 h, screen at 2 μg/mL, replicate 1, read-out: Pf_120h_%Growth_Rep1): 84.9%
activity at 2 µg/mL ([2]; 3D7, P. falciparum, 120 h, screen at 2 μg/mL, replicate 2, read-out: Pf_120h_%Growth_Rep2): 103%
activity at 2 µg/mL ([3]; 3D7, P. falciparum, 72 h, screen at 2 μg/mL, replicate 1, read-out: Pf_72h_%Growth_Rep1): 79.7%
activity at 2 µg/mL ([3]; 3D7, P. falciparum, 72 h, screen at 2 μg/mL, replicate 2, read-out: Pf_72h_%Growth_Rep2): 129%

CC(=O)N[C@H]1[C@H](O[C@@H]2c3ccc(c(Cl)c3)Oc3cc4cc(c3O[C@@H]3O[C@H](CO)[C@@H](O)[C@H](O)[C@H]3NC(=O)CCCCCCC(C)C)Oc3ccc(cc3Cl)C[C@H]3NC(=O)[C@H](N)c5ccc(O)c(c5)Oc5cc(O)cc(c5)[C@H](NC3=O)C(=O)N[C@H]4C(=O)N[C@H]3C(=O)N[C@@H]2C(=O)N[C@H](C(=O)O)c2cc(O)cc(O[C@H]4O[C@H](CO)[C@@H](O)[C@H](O)[C@@H]4O)c2-c2cc3ccc2O)O[C@H](CO)[C@@H](O)[C@@H]1O [Teicoplanin A2-2]
Tg_72h_%Growth_Rep1 [1, 12]: 90.69%
Tg_72h_%Growth_Rep2 [1, 13]: 106.25%
Pf_120h_%Growth_Rep1 [2, 14]: 148.39%
Pf_120h_%Growth_Rep2 [2, 15]: 93.23%
Pf_72h_%Growth_Rep1 [3, 16]: 72.71%
Pf_72h_%Growth_Rep2 [3, 17]: 85.08%

CC[C@H](C)[C@H]1NC(=O)[C@H](C(C)C)OC(=O)[C@H](CC(C)C)N(C)C(=O)[C@H](C(C)C)NC(=O)[C@H](CC(C)C)OC(=O)[C@@H](CC(C)C)NC1=O [Sporidesmolide V] (cyclo([Hica(2S)]V[NMeL][Hiv][d(aIle)][dL]))
Tg_72h_%Growth_Rep1 [1, 12]: 84.27%
Tg_72h_%Growth_Rep2 [1, 13]: 95.04%
Pf_120h_%Growth_Rep1 [2, 14]: 158.27%
Pf_120h_%Growth_Rep2 [2, 15]: 82.66%
Pf_72h_%Growth_Rep1 [3, 16]: 8.13%
Pf_72h_%Growth_Rep2 [3, 17]: 0.54%

CC(C)(O)[C@H]1O[C@H]2CC[C@@]3(C)[C@@](O)(CC[C@H]4Cc5c([nH]c6ccccc56)[C@@]43C)[C@]23O[C@@H]3[C@@H]1O [Terpendole I]
Tg_72h_%Growth_Rep1 [1, 4]: 89.20%
Tg_72h_%Growth_Rep2 [1, 5]: 95.24%
Pf_120h_%Growth_Rep1 [2, 6]: 141.22%
Pf_120h_%Growth_Rep2 [2, 7]: 87.55%
Pf_72h_%Growth_Rep1 [3, 8]: 66.72%
Pf_72h_%Growth_Rep2 [3, 9]: 80.63%

N[C@H](CO)[C@H](O)c1ccc([N+](=O)[O-])cc1 [Chloramphenicol base]
Tg_72h_%Growth_Rep1 [1, 4]: 134.60%
Tg_72h_%Growth_Rep2 [1, 5]: 99.67%
Pf_120h_%Growth_Rep1 [2, 6]: 102.72%
Pf_120h_%Growth_Rep2 [2, 7]: 92.34%
Pf_72h_%Growth_Rep1 [3, 8]: 86.96%
Pf_72h_%Growth_Rep2 [3, 9]: 86.58%

Cn1ncnc2c(=O)n(C)c(=O)nc1-2 [Toxoflavin]
Tg_72h_%Growth_Rep1 [1, 4]: 3.96%
Tg_72h_%Growth_Rep2 [1, 5]: 6.88%
Pf_120h_%Growth_Rep1 [2, 6]: 16.11%
Pf_120h_%Growth_Rep2 [2, 7]: 20.32%
Pf_72h_%Growth_Rep1 [3, 8]: 6.97%
Pf_72h_%Growth_Rep2 [3, 9]: -1.92%

CC1(C)OC2CC(=O)OCC23C1CC(=O)C1(C)C3CCC2(C)C(c3ccoc3)OC(=O)C3OC321 (stereo not drawn) [BIA-L1755]
Tg_72h_%Growth_Rep1 ([1]; T. gondii RH, library screen at 2 μg/mL, % growth, replicate 1): 135.94%
Tg_72h_%Growth_Rep2 ([1]; T. gondii RH, library screen at 2 μg/mL, % growth, replicate 2): 85.64%
Pf_120h_%Growth_Rep1 ([2]; P. falciparum 3D7, 120 h, library screen at 2 μg/mL, % growth, replicate 1): 93.20%
Pf_120h_%Growth_Rep2 ([2]; P. falciparum 3D7, 120 h, library screen at 2 μg/mL, % growth, replicate 2): 110.15%
Pf_72h_%Growth_Rep1 ([3]; P. falciparum 3D7, 72 h, library screen at 2 μg/mL, % growth, replicate 1): 83.85%
Pf_72h_%Growth_Rep2 ([3]; P. falciparum 3D7, 72 h, library screen at 2 μg/mL, % growth, replicate 2): 113.59%

Nc1ncnc2c1ccn2[C@@H]1O[C@H](CO)[C@@H](O)[C@H]1O [Tubercidin]
percent parasite growth at 2 µg/mL [1, 10]: 3.92%
percent parasite growth at 2 µg/mL [1, 11]: 3.05%
activity at 2 µg/mL ([2]; 3D7, 120 h, P. falciparum, 120 h, screen at 2 μg/mL, replicate 1, read-out: Pf_120h_%Growth_Rep1): 40.9%
activity at 2 µg/mL ([2]; 3D7, 120 h, P. falciparum, 120 h, screen at 2 μg/mL, replicate 2, read-out: Pf_120h_%Growth_Rep2): 12.8%
activity at 2 µg/mL ([3]; 3D7, 72 h, P. falciparum, 72 h, screen at 2 μg/mL, replicate 1, read-out: Pf_72h_%Growth_Rep1): 7.17%
activity at 2 µg/mL ([3]; 3D7, 72 h, P. falciparum, 72 h, screen at 2 μg/mL, replicate 2, read-out: Pf_72h_%Growth_Rep2): 7.42%

CCO[C@@H]1[C@@H](OC)[C@H](C)O[C@@H](O[C@@H]2C[C@H]3CC[C@@H]4[C@@H](C=C5C(=O)[C@H](C)[C@@H](O)CCC[C@H](CC)OC(=O)C[C@H]54)[C@@H]3C2)[C@@H]1OC
Tg_72h_%Growth_Rep1 [1, 12]: 110.35%
Tg_72h_%Growth_Rep2 [1, 13]: 84.17%
Pf_120h_%Growth_Rep1 [2, 14]: 31.22%
Pf_120h_%Growth_Rep2 [2, 15]: 24.15%
Pf_72h_%Growth_Rep1 [3, 16]: 35.55%
Pf_72h_%Growth_Rep2 [3, 17]: 25.61%
